Drawing on patent US20260092061A1, “COMPOUNDS FOR TARGETED PROTEIN DEGRADATION” (Amphista Therapeutics Limited, priority 2022, published 2026), this text covers Dmax and DC50 for 17 compounds.

In this assay the target is T1, BRD9 (Homo sapiens, UniProt Q9H8M2).
T1 sequence (Q9H8M2 1-597): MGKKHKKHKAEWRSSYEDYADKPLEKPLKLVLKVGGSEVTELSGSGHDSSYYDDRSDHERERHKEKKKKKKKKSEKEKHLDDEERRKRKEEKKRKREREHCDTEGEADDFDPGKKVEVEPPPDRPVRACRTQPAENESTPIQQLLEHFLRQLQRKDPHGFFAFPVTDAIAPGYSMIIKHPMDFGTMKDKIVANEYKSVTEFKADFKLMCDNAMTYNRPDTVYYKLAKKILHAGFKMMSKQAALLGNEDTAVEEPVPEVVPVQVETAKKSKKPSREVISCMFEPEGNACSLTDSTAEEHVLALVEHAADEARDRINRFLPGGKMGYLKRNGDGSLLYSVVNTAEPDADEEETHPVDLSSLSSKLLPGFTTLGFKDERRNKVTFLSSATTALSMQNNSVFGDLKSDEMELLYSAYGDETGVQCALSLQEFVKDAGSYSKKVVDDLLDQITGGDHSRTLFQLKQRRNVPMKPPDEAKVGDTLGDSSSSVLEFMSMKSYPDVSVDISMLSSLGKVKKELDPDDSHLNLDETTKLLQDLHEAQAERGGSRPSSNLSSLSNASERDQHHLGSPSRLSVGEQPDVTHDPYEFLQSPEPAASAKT
In words: BRD9 degradation, HiBiT-BRD9 KI HEK293 (LgBiT) cells, NanoGlo Lytic Endpoint assay (Assay Protocol 1). The assay is classed as cell-based. The following applies: Table 2, BRD9 degradation, Assay Protocol 1; for Dmax at 1 µM: HEK293, 1 μM compound at 6 h of treatment, read-out: Assay 1 Dmax; for DC50: 6 h of treatment, read-out: Assay 1 DC50. The protocol:
HiBiT-BRD9 KI HEK293 (LgBiT) Cells (Promega CS3023412) were seeded at 8000 cells per well (38 μL) in sterile white bottom 384 well plates (Invitrogen 164610 or Greiner 781080) and incubated overnight at 37° C. with 5% CO2. The next day, compounds were prepared at 1000× final concentration in DMSO and diluted 1:100 in media (DMEM PAN Biotech P04-03550+10% FBS ATCC 302025). 4 μL compound was added to each well of the cell plate and incubated for 6 h at 37° C. with 5% CO2 BRD9 expression was quantified using the NanoGlo Lytic Endpoint assay (Promega N3050). The lytic buffer was equilibrated to room temperature for 10-15 min before lytic reagent was prepared by adding substrate (1:50) and LgBit protein (1:100) in lytic buffer. 40 μL lytic reagent mix was added to each well of the cel plate and plates were centrifuged briefly at ˜50g. Plates were incubated with shaking (350 RPM) for 12-24 min before reading using the LUM plus module of a BMG Pherastar FSX. Data was analysed using Dotmatics software and % BRD9 remaining was calculated by normalisation to average data from high and low control wells (DMSO treated cels and no cells respectively).

Broadly, the Dmax is the greatest extent of degradation seen. Broadly, the DC50 is the concentration giving 50% degradation. Regarding `COc1cc(-c2cn(C)c(=O)c3cnccc23)cc(OC)c1CN1CCN(Cc2cccc(C3CCCN3C(=O)/C(C#N)=C/c3nccs3)c2)CC1` (mixture of isomers) [Compound A33, (E/Z)-2-(2-(3-((4-(2,6-dimethoxy-4-(2-methyl-1-oxo-1,2-dihydro-2,7-naphthyridin-4-yl)benzyl)piperazin-1-yl)methyl)phenyl)pyrrolidine-1-carbonyl)-3(thiazol-2-yl)acrylonitrile], the greatest degradation seen (Dmax) at 1 µM is more than 75% and the DC50 is less than 1.25 nM.
Regarding `COc1cc(-c2cn(C)c(=O)c3cnccc23)cc(OC)c1CN1CCN(C(=O)c2ccc(C3CCCN3C(=O)/C(C#N)=C/c3nccs3)cc2)CC1` (mixture of isomers) [Compound A34, (E/Z)-2-(2-(4-(4-(2,6-dimethoxy-4-(2-methyl-1-oxo-1,2-dihydro-2,7-naphthyridin-4-yl)benzyl)piperazine-1-carbonyl)phenyl)pyrrolidine-1-carbonyl)-3-(thiazol-2-yl)acrylonitrile], the Dmax at 1 µM lay in the range of 40 to 70% and the DC50 lay in the range of 1.25 to 10 nM.
On to `COc1cc(-c2cn(C)c(=O)c3cnccc23)cc(OC)c1CN1CCN(Cc2cccc3c2CCN(C(=O)/C(C#N)=C/c2c(F)cccc2F)C3C)CC1` (mixture of isomers) [Compound A35, (E/Z)-3-(2,6-difluorophenyl)-2-[5-[[4-[[2,6-dimethoxy-4-(2-methyl-1-oxo-2,7-naphthyridin-4-yl)phenyl]methyl]piperazin-1-yl]methyl]-1-methyl-3,4-dihydro-1H-isoquinoline-2-carbonyl]prop-2-enenitrile], for which the maximal degradation (Dmax) at 1 µM was 40 to 70% and the DC50 was 1.25 to 10 nM.
As to `COc1cc(-c2cn(C)c(=O)c3cnccc23)cc(OC)c1CN1CCN(Cc2ccc(C3CCCN3C(=O)/C(C#N)=C/c3nccs3)cc2)CC1` (mixture of isomers) [Compound A38, (E/Z)-2-(2-(4-((4-(2,6-dimethoxy-4-(2-methyl-1-oxo-1,2-dihydro-2,7-naphthyridin-4-yl)benzyl)piperazin-1-yl)methyl)phenyl)pyrrolidine-1-carbonyl)-3-(thiazol-2-yl)acrylonitrile], the Dmax at 1 µM fell in the range of 40 to 70% and the half-maximal degradation concentration (DC50) was in the range of 1.25 to 10 nM.
On to `COc1cc(-c2cn(C)c(=O)c3cnccc23)cc(OC)c1CN1C2CC1CN(Cc1cccc3c1CCN(C(=O)/C(C#N)=C/C(C)(C)C)C3C)C2` (mixture of isomers) [Compound A40], for which the greatest degradation seen (Dmax) at 1 µM was 70 to 75% and the DC50 was in the range of 10 to 25 nM.
On to `COc1cc(-c2cn(C)c(=O)c(C)c2C)cc(OC)c1CN1CCN(Cc2cccc3c2CCN(C(=O)/C(C#N)=C/C2CC2)C3C)CC1` (mixture of isomers) [Compound A44], for which the Dmax at 1 µM lay within 40 to 70% and the DC50 lay in the range of 1.25 to 10 nM.
For `COc1cc(-c2cn(C)c(=O)c(C)c2C)cc(OC)c1CN1CCN(Cc2cccc3c2CCN(C(=O)/C(C#N)=C/C2CCC2)C3C)CC1` (mixture of isomers) [Compound A45], the greatest degradation seen (Dmax) at 1 µM is 70 to 75% and the DC50 lay within 1.25 to 10 nM.
For `COc1cc(-c2cn(C)c(=O)c3cnccc23)cc(OC)c1CN(C)Cc1ccc2c(c1)CCN(C(=O)/C(C#N)=C/C(C)(C)C)C2C` (mixture of isomers) [Compound A46] the same measures were 40 to 70% and 1.25 to 10 nM.
Take `COc1cc(-c2cn(C)c(=O)c3cnccc23)cc(OC)c1CN(C)Cc1ccc2c(c1)C(C)N(C(=O)/C(C#N)=C/C(C)(C)C)CC2` (mixture of isomers) [Compound A47, (E/Z)-2-[7-[[2,6-dimethoxy-4-(2-methyl-1-oxo-2,7-naphthyridin-4-yl)phenylmethyl-methyl-amino]methyl]-1-methyl-3,4-dihydro-1H-isoquinoline-2-carbonyl]-4,4-dimethyl-pent-2-enenitrile]: the Dmax at 1 µM is 40 to 70% and the DC50 was 10 to 25 nM.
On to `COc1cc(-c2cc(C)c(=O)n(C)c2)cc(OC)c1CN1CCN(Cc2cccc3c2CCN(C(=O)/C(C#N)=C/C(C)C)C3C)CC1` (mixture of isomers) [Compound A52, (E/Z)-2-(5-((4-(4-(1,5-dimethyl-6-oxo-1,6-dihydropyridin-3-yl)-2,6-dimethoxybenzyl)piperazin-1-yl)methyl)-1-methyl-1,2,3,4-tetrahydroisoquinoline-2-carbonyl)-4-methylpent-2-enenitrile], for which the maximal degradation (Dmax) at 1 µM is more than 75% and the DC50 lay in the range of 1.25 to 10 nM.
As for `COc1cc(-c2cn(C)c(=O)c(C)c2C)cc(OC)c1CN1CCN(Cc2cccc3c2CCN(C(=O)/C(C#N)=C/c2ccc(C(F)(F)F)cn2)C3C)CC1` (mixture of isomers) [Compound A54, (E/Z)-2-(5-((4-(2,6-dimethoxy-4-(1,4,5-trimethyl-6-oxo-1,6-dihydropyridin-3-yl)benzyl)piperazin-1-yl)methyl)-1-methyl-1,2,3,4-tetrahydroisoquinoline-2-carbonyl)-3-(5-(trifluoromethyl)pyridin-2-yl)acrylonitrile], the Dmax at 1 µM lay within 40 to 70% and the DC50 was 1.25 to 10 nM.
Take `COc1cc(-c2cn(C)c(=O)c(C)c2C)cc(OC)c1CN1CCN(C(=O)CCc2ccc3c(c2)C(C)N(C(=O)/C(C#N)=C/c2nccs2)CC3)CC1` (mixture of isomers) [Compound A55, (E/Z)-2-(7(3-(4-(2,6-dimethoxy-4-(1,4,5-trimethyl-6-oxo-1,6-dihydropyridin-3-yl)benzyl)piperazin-1-yl)-3-oxopropyl)-1-methyl-1,2,3,4-tetrahydroisoquinoline-2-carbonyl)-3-(thiazol-2-yl)acrylonitrile]: the Dmax at 1 µM fell in the range of 40 to 70% and the 50% degradation concentration (DC50) fell in the range of 10 to 25 nM.
In the same order, the values of `COc1cc(-c2cn(C)c(=O)c(C)c2C)cc(OC)c1CN1CCN(C(=O)CCc2ccc3c(c2)CCN(C(=O)/C(C#N)=C/c2nccs2)C3C)CC1` (mixture of isomers) [Compound A56, (E/Z)-2-(6-(3-(4-(2,6-dimethoxy-4-(1,4,5-trimethyl-6-oxo-1,6-dihydropyridin-3-yl)benzyl)piperazin-1-yl)-3-oxopropyl)-1-methyl-1,2,3,4-tetrahydroisoquinoline-2-carbonyl)-3-(thiazol-2-yl)acrylonitrile] are 40 to 70% and 10 to 25 nM.
Turning to `COc1cc(-c2cn(C)c(=O)c(C)c2C)cc(OC)c1CN1CCN(C(=O)CCc2cccc3c2CCN(C(=O)/C(C#N)=C/c2nccs2)C3C)CC1` (mixture of isomers) [Compound A57, (E/Z)-2-(5-(3-(4-(2,6-dimethoxy-4-(1,4,5-trimethyl-6-oxo-1,6-dihydropyridin-4-yl)benzyl)piperazin-1-yl)-3-oxopropyl)-1-methyl-1,2,3,4-tetrahydroisoquinoline-2-carbonyl)-3-(thiazol-2-yl)acrylonitrile], the maximal degradation (Dmax) at 1 µM was more than 75% and the DC50 was in the range of 1.25 to 10 nM.
In the same order, the values of `CCCC(c1ccc(CCC(=O)N2CCN(Cc3c(OC)cc(-c4cn(C)c(=O)c(C)c4C)cc3OC)CC2)cc1)N(C)C(=O)/C(C#N)=C/c1nccs1` (mixture of isomers) [Compound A58, (E/Z)-2-cyano-N-(1-(4-(3-(4-(2,6-dimethoxy-4-(1,4,5-trimethyl-6-oxo-1,6-dihydropyridin-3-yl)benzyl)piperazin-1-yl)-3-oxopropyl)phenyl)butyl)-N-methyl-3-(thiazol-2-yl)acrylamide] are 40 to 70% and 1.25 to 10 nM.
For the compound `COc1cc(-c2cn(C)c(=O)c3cnccc23)cc(OC)c1CN(C)Cc1ccc2c(c1)C(C)N(C(=O)/C(C#N)=C/c1cccc(Br)n1)CC2` (mixture of isomers) [Compound A59], the greatest degradation seen (Dmax) at 1 µM was 70 to 75% and the 50% degradation concentration (DC50) was in the range of 1.25 to 10 nM.
Regarding `COc1cc(-c2cn(C)c(=O)c(C)c2C)cc(OC)c1CN1CCN(Cc2cccc(C3CCCN3C(=O)/C(C#N)=C/c3cccc(Br)n3)c2)CC1` (mixture of isomers) [Compound A63, (E/Z)-3-(6-bromopyridin-2-yl)-2-(2-(3-((4-(2,6-dimethoxy-4-(1,4,5-trimethyl-6-oxo-1,6-dihydropyridin-3-yl)benzyl)piperazin-1-yl)methyl)phenyl)pyrrolidine-1-carbonyl) acrylonitrile], the greatest degradation seen (Dmax) at 1 µM is more than 75% and the DC50 was 1.25 to 10 nM.
